Consider one compound from ChEMBL document CHEMBL6109121, “Discovery of Novel Sulfonylurea NLRP3 Inflammasome Inhibitor for the Treatment of Multiple Inflammatory Diseases” (J Med Chem, 2025).

SMILES strings stand for the structures. Active and inactive are the calls of the source. No cut-off for these calls is given here.

One may read the IC50 as the concentration that inhibits the measured activity by half. As a reminder, the half-life is the time in which the quantity being followed falls by half. A high value points to slow loss. What is called Tmax is the time from dosing to the highest level. By bioavailability is commonly meant dose-corrected exposure relative to a reference, in per cent. High values mean good availability, low ones poor availability. As usually defined, the AUC(0-t) is exposure summed from dosing to a finite time, without extrapolation to infinity. High values mean high exposure, low ones low exposure.

Series [1] in a line: Inhibition of NLRP3 inflammasome activation in human THP-1 cells assessed as inhibition of IL-1beta release. In kind it is cell-based.
Series [2] has as its system BMDM. Description: Inhibition of NLRP3 inflammasome activation at initiation phase in LPS/ATP-stimulated male C57BL/6J mouse BMDM cells assessed as inhibition of IL6 secretion […] for 4 hrs followed by compound administration for 30 mins and measured after 1 hrs of ATP addition by ELISA. The conditions noted are these: time 1.5 hrs. In kind it is cell-based.

The nature of series [3]: Half-life in male ICR (CD-1) mouse at 20 mg/kg, po by LC-MS/MS analysis. In kind it is ADME, organism-based. The conditions noted are these: in vivo.
A short description of series [4]: Tmax in male ICR (CD-1) mouse at 20 mg/kg, po by LC-MS/MS analysis. In kind it is ADME, organism-based. The conditions noted are these: in vivo.
Series [5] in a line: Oral bioavailability in male ICR (CD-1) mouse at 20 mg/kg by LC-MS/MS analysis. In kind it is ADME, organism-based. The conditions noted are these: in vivo.
Series [6] in a line: AUClast in male ICR (CD-1) mouse at 5 mg/kg, iv by LC-MS/MS analysis. The conditions noted are these: in vivo. In kind it is ADME, organism-based.
The test system of series [7] is Mus musculus. Kind of series: Anti-inflammatory activity in LPS/ATP-induced acute peritonitis male C57BL/6J mouse model assessed as survival rate at 1 mg/kg, po preadministered with compound for 1 hrs followed by LPS addition for 2 hrs and further administered with ATP and measured 21 hrs post LPS administration relative to control. The conditions noted are these: time 22 hrs. In kind it is functional.

The test system of series [8] is Mus musculus. Description: Anti-inflammatory activity in LPS/ATP-induced acute peritonitis male C57BL/6J mouse model assessed as survival rate at 20 mg/kg, po preadministered with compound for 1 hrs followed by LPS addition for 2 hrs and further administered with ATP and measured 21 hrs post LPS administration relative to control. In kind it is functional. The conditions noted are these: time 22 hrs.

For series [9], the system named is Mus musculus. Description: Antidiabetic activity in HFD-fed STZ-induced diabetic kidney disease male C57BL/6J mouse model assessed as reduction in urine albumin-to-creatinine ratio at 20 mg/kg fed with high fat diet for 4 weeks followed by STZ administration for 5 days and measured 6 weeks post compound administration via gavage. In kind it is functional, organism-based.

In series [10] the test system is Mus musculus. Description: Antidiabetic activity in HFD-fed STZ-induced diabetic kidney disease male C57BL/6J mouse model assessed as reduction in glomerular thickening in kidney at 20 mg/kg fed with high fat diet for 4 weeks followed by STZ administration for 5 days and measured 6 weeks post compound administration via gavage by histological analysis. In kind it is functional, organism-based.

For series [11], the system named is Mus musculus. Kind of series: Antidiabetic activity in HFD-fed STZ-induced diabetic kidney disease male C57BL/6J mouse model assessed as decrease in IL-1beta level in serum at 20 mg/kg fed with high fat diet for 4 weeks followed by STZ administration for 5 days and measured 6 weeks post compound administration via gavage by ELISA. In kind it is functional, organism-based.

The subject of series [12] is Mus musculus. Description: Effect on TNF-alpha level in serum of HFD-fed STZ-induced diabetic kidney disease male C57BL/6J mouse model at 20 mg/kg fed with high fat diet for 4 weeks followed by STZ administration for 5 days and measured 6 weeks post compound administration via gavage by ELISA. In kind it is functional, organism-based. Background: An ELISA detects its analyte on a solid surface through an enzyme-linked reagent.

The target of series [13] is Nlrp3/Pycard (Mus musculus) (UniProt Q8R4B8+Q9EPB4). Description: In vivo inhibition of NLRP3-ASC protein-protein interaction in HFD-fed STZ-induced diabetic kidney disease male C57BL/6J mouse model at 20 mg/kg fed with high fat diet for 4 weeks followed by STZ administration for 5 days and measured 6 weeks post compound administration via gavage by co-immunoprecipitation based Western blot analysis. In kind it is functional, organism-based. (A western blot detects proteins with antibodies after separation by electrophoresis.)
Nlrp3/Pycard (Mus musculus), sequence (Q8R4B8 whole entry, looked up): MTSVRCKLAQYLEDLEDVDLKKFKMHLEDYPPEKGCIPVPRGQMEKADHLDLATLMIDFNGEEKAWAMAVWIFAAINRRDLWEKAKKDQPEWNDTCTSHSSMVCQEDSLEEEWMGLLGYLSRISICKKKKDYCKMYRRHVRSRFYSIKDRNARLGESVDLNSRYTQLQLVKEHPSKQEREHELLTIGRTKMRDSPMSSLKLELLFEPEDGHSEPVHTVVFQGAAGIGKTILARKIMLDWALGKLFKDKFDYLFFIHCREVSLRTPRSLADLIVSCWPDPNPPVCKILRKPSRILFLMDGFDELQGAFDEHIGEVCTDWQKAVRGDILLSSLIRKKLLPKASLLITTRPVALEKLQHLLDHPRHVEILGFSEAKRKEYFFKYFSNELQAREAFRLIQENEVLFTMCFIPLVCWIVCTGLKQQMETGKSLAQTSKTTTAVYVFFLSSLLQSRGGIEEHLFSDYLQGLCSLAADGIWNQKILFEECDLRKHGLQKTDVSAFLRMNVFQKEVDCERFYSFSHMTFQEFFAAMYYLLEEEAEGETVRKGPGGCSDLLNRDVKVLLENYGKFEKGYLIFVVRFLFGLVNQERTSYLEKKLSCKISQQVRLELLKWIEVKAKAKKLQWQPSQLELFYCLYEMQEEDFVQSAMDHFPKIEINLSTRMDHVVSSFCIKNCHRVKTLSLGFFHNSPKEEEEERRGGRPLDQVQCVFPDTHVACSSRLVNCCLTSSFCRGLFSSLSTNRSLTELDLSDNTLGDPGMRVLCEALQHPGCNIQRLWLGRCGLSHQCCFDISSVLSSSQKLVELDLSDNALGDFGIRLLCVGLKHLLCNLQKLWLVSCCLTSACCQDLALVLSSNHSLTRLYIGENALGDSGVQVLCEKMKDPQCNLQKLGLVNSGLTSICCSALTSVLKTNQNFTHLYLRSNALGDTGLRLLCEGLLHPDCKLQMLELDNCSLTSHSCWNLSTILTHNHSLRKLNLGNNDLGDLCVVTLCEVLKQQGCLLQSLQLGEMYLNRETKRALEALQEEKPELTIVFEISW
Nlrp3/Pycard (Mus musculus), sequence (Q9EPB4 whole entry, looked up): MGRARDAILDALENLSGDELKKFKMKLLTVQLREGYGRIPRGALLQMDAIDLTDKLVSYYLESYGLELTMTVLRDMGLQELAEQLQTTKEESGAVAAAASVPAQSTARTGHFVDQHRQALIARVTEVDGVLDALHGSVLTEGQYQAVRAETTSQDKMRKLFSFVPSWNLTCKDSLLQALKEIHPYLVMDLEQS

For series [14], the system named is Mus musculus. Kind of series: Effect on HDL-C level in serum of HFD-fed STZ-induced diabetic kidney disease male C57BL/6J mouse model at 20 mg/kg fed with high fat diet for 4 weeks followed by STZ administration for 5 days and measured 6 weeks post compound administration via gavage. In kind it is functional, organism-based.
In series [15] the test system is Mus musculus. Description: Anti-colitis activity in DSS-induced acute ulcerative colitis male C57BL/6J mouse model assessed as increase in colon length at 0.2 to 5 mg/kg, po preadministered with DSS for 7 days followed by 3 days of drinking water and measured after 10 days of compound administration. In kind it is functional, organism-based. The conditions noted are these: dose 0.2-5 mg/kg, time 10.0 day.

Series [16] deals with Mus musculus. Kind of series: Anti-colitis activity in DSS-induced acute ulcerative colitis male C57BL/6J mouse model assessed as reduction in disruption of mucosal barrier in colon at 0.2 to 5 mg/kg, po preadministered with DSS for 7 days followed by 3 days of drinking water and measured after 10 days of compound administration by H and E staining based analysis. In kind it is functional, organism-based. The conditions noted are these: dose 0.2-5 mg/kg, time 10.0 day.

Series [17] concerns Mus musculus. Kind of series: Anti-colitis activity in DSS-induced acute ulcerative colitis male C57BL/6J mouse model assessed as reduction in depletion of goblet cells in colon at 0.2 to 5 mg/kg, po preadministered with DSS for 7 days followed by 3 days of drinking water and measured after 10 days of compound administration by H and E staining based analysis. In kind it is functional, organism-based. The conditions noted are these: dose 0.2-5 mg/kg, time 10.0 day.

Series [18] has as its system Mus musculus. Kind of series: Anti-colitis activity in DSS-induced acute ulcerative colitis male C57BL/6J mouse model assessed as reduction in infiltration of inflammatory cells in colon at 0.2 to 5 mg/kg, po preadministered with DSS for 7 days followed by 3 days of drinking water and measured after 10 days of compound administration by H and E staining based analysis. In kind it is functional, organism-based. The conditions noted are these: dose 0.2-5 mg/kg, time 10.0 day.

For series [19], the target named is NACHT, LRR and PYD domains-containing protein 3 (Mus musculus) (UniProt Q8R4B8). Description: In vivo inhibition of NLRP3 inflammasome activation in DSS-induced acute ulcerative colitis male C57BL/6J mouse model assessed as reduction in IL-1beta level in colon at 0.2 to 5 mg/kg, po preadministered with DSS for 7 days followed by 3 days of drinking water and measured after 10 days of compound administration by ELISA. In kind it is functional, organism-based. The conditions noted are these: dose 0.2-5 mg/kg, time 10.0 day.
NACHT, LRR and PYD domains-containing protein 3 (Mus musculus), sequence (Q8R4B8 whole entry, the tested form may be a part): as the sequence (Q8R4B8 whole entry, looked up) above

With `CN1CCC(N(C)S(=O)(=O)NC(=O)Nc2c3c(cc4c2CCC4)CCC3)CC1`, in series [1], the IC50 is 23 nM. The inhibition result in series [2] is “inactive”. The half-life in [3] was 2.7 h. In addition, the Tmax in [4] worked out at 0.33 h. The same compound came in with a bioavailability in series [5] of 99.6%. This compound had an AUC(0-t) in [6] of 14500 ng·h/mL. In addition, in series [7], the survival at 1 mg/kg turned out to be 75%. Also, the survival at 20 mg/kg in series [8] was 100%. In addition, the result in series [9], in [10], in series [11], in series [16], in series [17] and in series [18] was Active. Further, the outcome in series [12], in [14] and in series [15] was inactive. The inhibition entry in series [13] and in series [19] was “Active” each time.
